Test results as given in patent US20080089862A1, “PROTEASE INHIBITORS AND METHOD OF SCREENING THEREOF” (priority 2005, published 2008).
No end group written: not given here.

Target: T1, MBP-scNS3 (Hepatitis C virus genotype 1b, UniProt P26663)
T1 construct: made in house
Assay: Bacterial genetic screening, blue/white colonies on X-gal indicative plates
Type: cell-based, Hepatitis C virus (HCV) genotype Ib
Settings: IPTG-induced test bacteria (pMGT14); blue = NS3 inhibited
Text: Applying the bacterial genetic screening to isolate NS3-inhibitory scFvs. Affinity selected phages were pooled and used as source for scFv DNA by digestion of phagemid DNA with Ncol and Notl. The pooled insert DNA was cloned into pMALc-NN that had been digested with the same enzymes essentially as described (Bach et al., 2001). In pMALc-NN, expression of MBP-scFvs is under the control of an IPTG-inducible tac promoter and the plasmid carries an ampicillin resistance cassette and the colEl origin of replication and is thus compatible with pMGT14 or pMGT15. The plasmid pool was introduced into E. coli TG-I cells already containing the pMGT14 plasmid. The transformants were plated to yield individual colonies on 2xYT agar plates supplemented with 0.004% (w/v) X-gal, 100 μg/ml ampicillin, 50 μg/ml kanamycin, 0.2% arabinose and 0.05 mM IPTG. Blue colonies were picked and pMALc-NN-scFv DNA was recovered and re-introduced into pMGT14 expressing cells to validate the results of the initial screening.
The expression platform was constructed as follows: C-terminal peptides were introduced by PCR using pMALc-NN (Bach et al., 2001) as template and recloning into the same backbone. The ligated vectors were introduced into the “bacterial test strain” and IPTG induction was used to overexpress the peptides. […]

DYKDDDDK [FLAG epitope]
colony colour on X-gal plates: colorless

EASEDVVC (not fully specified) ["product-like" peptide (NS5A/B site P side), control construct]
colony colour on X-gal plates: blue
